The text below walks through data of patent US20140120060A1, “TREATMENT OF RHEUMATOID ARTHRITIS AND ASTHMA USING PI3 KINASE INHIBITORS” (INFINITY PHARMACEUTICALS, INC., priority 2012, published 2014).

This assay relates to B cell. The experiment in a line: B cell proliferation. It counts as cell-based.
For the compound `Cc1cccc2cc(Cn3nc(-c4cn[nH]c4)c4c(N)ncnc43)n(-c3cccc(F)c3)c(=O)c12` [Compound 166], the EC50 – broadly, the concentration giving half of the maximal effect – is under 100 nM.

Compound `Cc1cccc2cc(C(C)Nc3ncnc4[nH]cnc34)n(-c3ccccc3F)c(=O)c12` (centres unmarked) [Compound 167] had a 50% effective concentration (EC50) of under 100 nM. The result for `CC(=O)Nc1nc2ccc(-c3nn(Cc4cc5ccccc5c(=O)n4-c4ccccc4C)c4ncnc(N)c34)cc2s1` [Compound 168] reads under 100 nM; that for `Cc1cccc2cc(Cn3nc(C#N)c4c(N)ncnc43)n(-c3ccccc3F)c(=O)c12` [Compound 169], under 1000 nM. The result for `Cc1ccccc1-n1c(Cn2nc(C#N)c3c(N)ncnc32)cc2cccc(C)c2c1=O` [Compound 170] reads under 100 nM. Next, `Cc1cccc2cc(Cn3nc(/C=C4/SC(=O)NC4=O)c4c(N)ncnc43)n(-c3ccccc3F)c(=O)c12` [Compound 171]: under 100 nM. In the case of `Cc1ccccc1-n1c(Cn2nc(/C=C3/SC(=O)NC3=O)c3c(N)ncnc32)cc2cccc(C)c2c1=O` [Compound 173], the EC50 is under 100 nM. Next, `Cc1ccccc1-n1c(Cn2nc(/C=C/C(N)=O)c3c(N)ncnc32)cc2cccc(C)c2c1=O` [Compound 174]: under 100 nM; `CCn1c(Cn2nc(-c3ccc4nc(NC(C)=O)sc4c3)c3c(N)ncnc32)cc2cccc(C)c2c1=O` [Compound 176]: under 100 nM. As for `CC(=O)Nc1nc2ccc(-c3nn(Cc4cc5cccc(C)c5c(=O)n4-c4ccccc4)c4ncnc(N)c34)cc2s1` [Compound 177], the EC50 was under 100 nM.

As to `CC(=O)Nc1nc2ccc(-c3nn(Cc4cc5cccc(C)c5c(=O)n4-c4cccc(F)c4)c4ncnc(N)c34)cc2s1` [Compound 178], the EC50 was under 100 nM. Next, `C=Cc1nn(Cc2cc3cccc(C)c3c(=O)n2-c2ccccc2C)c2ncnc(N)c12` [Compound 180]: under 100 nM.

On to `Cc1cccc2cc(Cn3nc(-c4cn[nH]c4)c4c(N)ncnc43)n(-c3ccccc3C(C)C)c(=O)c12` [Compound 185], for which the EC50 is under 100 nM. Compound `Cc1ccccc1-n1c(Cn2nc(-c3cn[nH]c3)c3c(N)ncnc32)cc2ccccc2c1=O` [Compound 187] came in with a half-maximal effective concentration (EC50) of under 100 nM. Next, `Cc1cccc2cc(Cn3nc(-c4cn[nH]c4)c4c(N)ncnc43)n(-c3ccccc3Cl)c(=O)c12` [Compound 188]: under 100 nM; `CCc1ccccc1-n1c(Cn2nc(-c3cn[nH]c3)c3c(N)ncnc32)cc2cccc(C)c2c1=O` [Compound 190]: under 100 nM; `Cc1ccccc1-n1c(C(C)Nc2ncnc3[nH]cnc23)cc2cccc(C)c2c1=O` (centres unmarked) [Compound 191]: under 100 nM. The result for `Cc1cccc2cc([C@@H](C)Nc3ncnc4[nH]cnc34)n(-c3ccccc3)c(=O)c12` [Compound 195] reads under 1000 nM. `Cc1cccc2cc([C@H](C)Nc3ncnc4[nH]cnc34)n(-c3ccccc3)c(=O)c12` [Compound 196] had an EC50 of under 100 nM. The result for `Cc1cccc2cc([C@@H](C)Nc3ncnc4[nH]cnc34)n(C3CCC3)c(=O)c12` [Compound 197] reads under 10000 nM. The result for `Cc1cccc2cc([C@H](C)Nc3ncnc4[nH]cnc34)n(C3CCC3)c(=O)c12` [Compound 198] reads under 100 nM; that for `Cc1cccc2cc([C@@H](C)Nc3ncnc4[nH]cnc34)n(C3CC3)c(=O)c12` [Compound 199], over 10000 nM; that for `Cc1cccc2cc([C@H](C)Nc3ncnc4[nH]cnc34)n(C3CC3)c(=O)c12` [Compound 200], under 100 nM. Next, `Cc1cccc2cc(Cn3nc(-c4ccc5oc(N)nc5c4)c4c(N)ncnc43)n(C3CC3)c(=O)c12` [Compound 201]: under 100 nM; `CCC(Nc1ncnc2[nH]cnc12)c1cc2cccc(C)c2c(=O)n1-c1ccccc1C` (centres unmarked) [Compound 202]: under 100 nM. Regarding `Cc1cccc2cc(C(C)Nc3ncnc4[nH]cnc34)n(C3CC3)c(=O)c12` (centres unmarked) [Compound 204], the 50% effective concentration (EC50) was under 100 nM. `Cc1cccc2cc(Cn3nc(-c4ccc5oc(N)nc5c4)c4c(N)ncnc43)n(-c3ccccc3)c(=O)c12` [Compound 205] registered a 50% effective concentration (EC50) of under 100 nM. The result for `Cc1cccc2cc(Cn3nc(-c4cn[nH]c4)c4c(N)ncnc43)n(-c3ccccc3)c(=O)c12` [Compound 206] reads under 100 nM; that for `Cc1ccccc1-n1c(Cn2nc(-c3nn[nH]n3)c3c(N)ncnc32)cc2cccc(C)c2c1=O` [Compound 207], under 10000 nM. Next, `Cc1cccc2cc(Cn3nc(-c4ccc5oc(N)nc5c4)c4c(N)ncnc43)n(C3CCC3)c(=O)c12` [Compound 208]: under 100 nM; `Cc1cccc2cc(C(C)Nc3ncnc4[nH]cnc34)n(C(C)C)c(=O)c12` (centres unmarked) [Compound 209]: under 100 nM. In turn, `Cc1cccc2cc(C(C)Nc3ncnc4[nH]cnc34)n(-c3ccccc3)c(=O)c12` (centres unmarked) [Compound 210] showed an EC50 of under 100 nM. Compound `CCC(Nc1ncnc2[nH]cnc12)c1cc2cccc(C)c2c(=O)n1-c1ccccc1` (centres unmarked) [Compound 211] came in with an EC50 of under 100 nM. Next, `CCC(Nc1ncnc2[nH]cnc12)c1cc2cccc(C)c2c(=O)n1C1CCC1` (centres unmarked) [Compound 212]: under 1000 nM. The result for `Cc1cccc2cc(C(C)Nc3ncnc4[nH]cnc34)n(-c3ccc(F)cc3)c(=O)c12` (centres unmarked) [Compound 213] reads under 100 nM. Take `Cc1cccc2cc(Cn3nc(-c4cn[nH]c4)c4c(N)ncnc43)n(-c3ccccc3C(F)(F)F)c(=O)c12` [Compound 214]: the EC50 is under 100 nM.

`Cc1cccc2cc(C(C)Nc3ncnc4[nH]cnc34)n(C3CCC3)c(=O)c12` (centres unmarked) [Compound 215] gave a concentration for a half-maximal effect (EC50) of under 100 nM. The result for `Cc1cccc2cc(C(C)Nc3ncnc4[nH]cnc34)n(-c3c(F)cccc3F)c(=O)c12` (centres unmarked) [Compound 216] reads under 100 nM; that for `CCC(Nc1ncnc2[nH]cnc12)c1cc2cccc(C)c2c(=O)n1C(C)C` (centres unmarked) [Compound 219], under 100 nM; that for `CC(Nc1ncnc2[nH]cnc12)c1cc2ccccc2c(=O)n1-c1ccccc1` (centres unmarked) [Compound 220], under 100 nM. Next, `CCC(Nc1ncnc2[nH]cnc12)c1cc2ccccc2c(=O)n1-c1ccccc1` (centres unmarked) [Compound 221]: under 100 nM; `Cc1cccc2cc(C(C)Nc3ncnc4[nH]cnc34)n(-c3cc(F)cc(F)c3)c(=O)c12` (centres unmarked) [Compound 222]: under 100 nM; `CCC(Nc1ncnc2[nH]cnc12)c1cc2cccc(C)c2c(=O)n1-c1ccc(F)cc1` (centres unmarked) [Compound 223]: under 100 nM. Next, `CCC(Nc1ncnc2[nH]cnc12)c1cc2cccc(C)c2c(=O)n1-c1cc(F)cc(F)c1` (centres unmarked) [Compound 224]: under 100 nM; `Cc1cccc2cc(C(C)Nc3ncnc4[nH]cnc34)n(C3CCN(C)CC3)c(=O)c12` (centres unmarked) [Compound 227]: under 100 nM; `CCC(Nc1ncnc2[nH]cnc12)c1cc2cccc(C)c2c(=O)n1C1CCN(C)CC1` (centres unmarked) [Compound 228]: under 100 nM. In turn, `Cc1cccc2cc(C(C)Nc3ncnc4[nH]cnc34)n(-c3cccc(F)c3)c(=O)c12` (centres unmarked) [Compound 229] showed an EC50 of under 100 nM. `Cc1cccc2cc([C@H](C)Nc3ncnc4[nH]cnc34)n(C(C)C)c(=O)c12` [Compound 230] gave a concentration giving a half-maximal response (EC50) of under 100 nM. Next, `Cc1cccc2cc(C(C)Nc3ncnc4[nH]cnc34)n(C3CCCC3)c(=O)c12` (centres unmarked) [Compound 231]: under 100 nM; `Cc1cccc2cc(C(C)Nc3ncnc4[nH]cnc34)n(CCN3CCOCC3)c(=O)c12` (centres unmarked) [Compound 232]: under 100 nM.
